Earlier results as cited in article PMC9737391, “Trifluoromethylcinnamanilide Michael Acceptors for Treatment of Resistant Bacterial Infections” (International Journal of Molecular Sciences, 2022).

Columns and labels:
[1] = system: S. aureus ATCC 29213; details: MTT, at MIC value; cited from earlier work
[2] = system: M. tuberculosis H37Ra; parameters: method as in ref 26 = [26]; PMID 30087309; doi:10.3390/ijms19082318; 26. Pospisilova S. Kos J. Michnova H. Kapustikova I. Strharsky T. Oravec M. Moricz A.M. Bakonyi J. Kauerova T. Kollar P. Synthesis and spectrum of biological activities of novel N -arylcinnamamides In; details: average over the named compounds; cited from earlier work
[3] = system: S. aureus/MRSA; parameters: method as in ref 26, 51 = [26]; PMID 30087309; doi:10.3390/ijms19082318; 26. Pospisilova S. Kos J. Michnova H. Kapustikova I. Strharsky T. Oravec M. Moricz A.M. Bakonyi J. Kauerova T. Kollar P. Synthesis and spectrum of biological activities of novel N -arylcinnamamides In || [51]; 51. Pospisilova S. Kos J. Michnova H. Strharsky T. Cizek A. Jampilek J. N -Arylcinnamamides as antistaphylococcal agents Proceedings of the 4th International Electronic Conference on Medicinal Chemist; details: cited from earlier work
[4] = system: staphylococcal biofilm; parameters: method as in ref 26, 51 = [26]; PMID 30087309; doi:10.3390/ijms19082318; 26. Pospisilova S. Kos J. Michnova H. Kapustikova I. Strharsky T. Oravec M. Moricz A.M. Bakonyi J. Kauerova T. Kollar P. Synthesis and spectrum of biological activities of novel N -arylcinnamamides In || [51]; 51. Pospisilova S. Kos J. Michnova H. Strharsky T. Cizek A. Jampilek J. N -Arylcinnamamides as antistaphylococcal agents Proceedings of the 4th International Electronic Conference on Medicinal Chemist; details: cited from earlier work
[5] = system: Plasmodium falciparum 3D7; parameters: method as in PMID 36431900; details: read-out: IC50 against Plasmodium falciparum 3D7; cited from earlier work
[6] = system: M. tuberculosis; parameters: method as in ref 26 = [26]; PMID 30087309; doi:10.3390/ijms19082318; 26. Pospisilova S. Kos J. Michnova H. Kapustikova I. Strharsky T. Oravec M. Moricz A.M. Bakonyi J. Kauerova T. Kollar P. Synthesis and spectrum of biological activities of novel N -arylcinnamamides In; details: MTT, at MIC values; cited from earlier work

In the case of O=C(/C=C/c1ccccc1)Nc1ccc(C(F)(F)F)c(F)c1 [3c], the “inhibition of S. aureus respiration” value [1] is listed as 86%.

For O=C(/C=C/c1ccccc1)Nc1cccc(C(F)(F)F)c1 [3a], the “average MIC against M. tuberculosis H37Ra” value [2] is listed as ~ 24 µM, the bactericidal effect [3] is listed as “bactericidal effect in concentrations close to MICs” and the “effect on staphylococcal biofilm” value [4] is listed as “ability to inhibit the growth of staphylococcal biofilm and disrupted mature biofilm in concentrations close to MICs”.

In the case of O=C(/C=C/c1ccccc1)Nc1ccc(Br)cc1Cl [3f], the IC50 [5] is given as 580 nM.

For O=C(/C=C/c1ccccc1)Nc1cc(Cl)cc(Cl)c1 [3d], the “average MIC against M. tuberculosis H37Ra” value [2] is listed as ~ 24 µM and the “inhibition of M. tuberculosis respiration” value [6] is listed as 77%.
